Consider 14 compounds from patent US9365511B2, “Biphenyl-ethyl-pyrrolidine derivatives as histamine H3 receptor modulators for the treatment of cognitive disorders” (Arena Pharmaceuticals, Inc., priority 2013, dated 2016).

human H3 receptor, sequence (Q9Y5N1 whole entry): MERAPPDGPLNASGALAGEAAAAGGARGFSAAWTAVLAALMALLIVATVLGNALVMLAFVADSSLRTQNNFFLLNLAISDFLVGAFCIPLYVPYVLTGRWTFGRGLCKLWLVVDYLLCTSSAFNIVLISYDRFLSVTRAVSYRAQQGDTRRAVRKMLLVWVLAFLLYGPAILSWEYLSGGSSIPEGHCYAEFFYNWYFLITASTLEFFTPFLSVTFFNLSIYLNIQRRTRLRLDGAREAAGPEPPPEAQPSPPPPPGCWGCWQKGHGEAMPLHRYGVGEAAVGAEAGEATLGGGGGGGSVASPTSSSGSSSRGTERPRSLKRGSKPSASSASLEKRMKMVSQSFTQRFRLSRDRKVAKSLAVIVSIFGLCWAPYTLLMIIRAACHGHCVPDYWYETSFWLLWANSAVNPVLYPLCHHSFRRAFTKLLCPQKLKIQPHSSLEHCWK

The experiment concerns the target human H3 receptor (Homo sapiens (Human), UniProt Q9Y5N1). Description: Human H3 receptor HTRF cAMP assay. In kind it is cell-based. To be noted: HEK293 cells expressing the human H3 receptor, forskolin 2 μM; read-out: IC50 H3R. The source says:
Homogeneous time-resolved fluorescence assays (HTRF®, Cisbio) detect levels of cAMP in lysed cell preparations using a europium or terbium cryptate-labeled anti-cAMP antibody and fluorophore-labeled cAMP (cAMP-d2). In the absence of exogenous cAMP, the anti-cAMP antibody binds to cAMP-d2. Photoexcitation of the cryptate donor results in a combination of cryptate emission at 620 nm and fluorescence resonance energy transfer (FRET) from the cryptate to the acceptor d2 fluorophore, which then fluoresces at 665 nm. The 620/665 nm emission ratio is monitored. In the presence of exogenous cAMP, which competes with cAMP-d2 for binding to the anti-cAMP antibody, FRET is decreased and the […], providing a sensitive and accurate means to measure cAMP levels in biological assays.
Compounds of the present invention were evaluated using the human H3 receptor (H3R) HTRF cAMP assay. In this assay, HEK293 cells expressing the human H3 receptor were suspended in PBS containing 100 μM IBMX and plated into 384-well assay plates (Perkin Elmer Proxiplate 384-Plus; 15,000 cells per well; 5 μL plating volume) and allowed to equilibrate for an hour. Test compounds were serially diluted in 100% DMSO and then further diluted in PBS containing forskolin (2 μM). Test compounds (5 μL) were then added to the assay plate and the mixture was incubated for 1 hour. HTRF assay reagents (Cisbio, Dynamic 2 cAMP Kit), cAMP-d2 and cryptate-labeled anti-cAMP antibody, are mixed with cell lysis buffer and added to the assay plate. After 1-hour incubation with these reagents, the assay plate was read on an HTRF-compatible microplate reader (Perkin Elmer EnVision or BMG Pherastar). A cAMP standard curve was included on each assay plate and HTRF emission ratios for test compounds were fit to this curve to generate accurate measures of cAMP levels in each test well.
Turning to `COC(=O)CNC(=O)CCc1ccc(-c2ccc(CCN3CCC[C@H]3C)cc2)cc1` [Compound 24, (R)-Methyl 2-(3-(4′-(2-(2-Methylpyrrolidin-1-yl)ethyl)biphenyl-4-yl)propanamido)acetate], the IC50 came out at 0.99 nM.

With `CCOC(=O)C1CCCCC1NC(=O)C1(c2ccc(-c3ccc(CCN4CCC[C@H]4C)cc3)cc2)CCCC1` (stereo in doubt) [Compound 20, (1R,2S)-Ethyl 2-(1-(4′-(2-((R)-2-Methylpyrrolidin-1-yl)ethyl)biphenyl-4-yl)cyclopentanecarboxamido)cyclohexanecarboxylate], the IC50 stood at 3 nM.

Take `C[C@H](NC(=O)CCc1ccc(-c2ccc(CCN3CCC[C@H]3C)cc2)cc1)C(=O)OC(C)(C)C` [Compound 13, (S)-tert-Butyl 2-(3-(4′-(2-((R)-2-Methylpyrrolidin-1-yl)ethyl)biphenyl-4-yl)propanamido)propanoate]: the IC50 came out at 2.1 nM.

`C[C@@H]1CCCN1CCc1ccc(-c2ccc(COCC(=O)O)cc2)cc1` [Compound 5, (R)-2-((4′-(2-(2-Methylpyrrolidin-1-yl)ethyl)biphenyl-4-yl)methoxy)acetic Acid]: the IC50 was found to be 5.5 nM.

With `C[C@@H]1CCCN1CCc1ccc(-c2ccc(CCc3nnn[nH]3)cc2)cc1` [Compound 44, (R)-5-(2-(4′-(2-(2-Methylpyrrolidin-1-yl)ethyl)biphenyl-4-yl)ethyl)-1H-tetrazole], the IC50 worked out at 6.9 nM.

As to `C[C@@H]1CCCN1CCc1ccc(-c2ccc(CCC(=O)NC(C)(C)C(=O)OC(C)(C)C)cc2)cc1` [Compound 12, (R)-tert-Butyl 2-Methyl-2-(3-(4′-(2-(2-methylpyrrolidin-1-yl)ethyl)biphenyl-4-yl)propanamido)propanoate], the IC50 came out at 0.95 nM.

`CCOC(=O)COCc1ccc(-c2ccc(CCN3CCC[C@H]3C)cc2)cc1` [Compound 4, (R)-Ethyl 2-((4′-(2-(2-Methylpyrrolidin-1-yl)ethyl)biphenyl-4-yl)methoxy)acetate]: the half-maximal inhibitory concentration (IC50) amounted to 0.67 nM.

As to `C[C@@H]1CCCN1CCc1ccc(-c2ccc(C3(C(=O)NCCCC(=O)O)CCCC3)cc2)cc1` [Compound 33, (R)-4-(1-(4′-(2-(2-Methylpyrrolidin-1-yl)ethyl)biphenyl-4-yl)cyclopentanecarboxamido)butanoic Acid], the concentration for half-maximal inhibition (IC50) was 2.1 nM.

As for `C[C@@H]1CCCN1CCc1ccc(-c2ccc(CCCC(=O)O)cc2)cc1` [Compound 45, (R)-4-(4′-(2-(2-Methylpyrrolidin-1-yl)ethyl)biphenyl-4-yl)butanoic Acid], the IC50 amounted to 0.97 nM.

Regarding `COC(=O)C1(c2ccc(-c3ccc(CCN4CCC[C@H]4C)cc3)cc2)CCCC1` [Compound 25, (R)-Methyl 1-(4′-(2-(2-Methylpyrrolidin-1-yl)ethyl)biphenyl-4-yl)cyclopentanecarboxylate], the IC50 is 3.3 nM.

As for `CCOC(=O)C1CCN(C(=O)CCc2ccc(-c3ccc(CCN4CCC[C@H]4C)cc3)cc2)CC1` [Compound 35, (R)-Ethyl 1-(3-(4′-(2-(2-Methylpyrrolidin-1-yl)ethyl)biphenyl-4-yl)propanoyl)piperidine-4-carboxylate], the half-maximal inhibitory concentration (IC50) worked out at 0.96 nM.

As to `C[C@H](NC(=O)CCc1ccc(-c2ccc(CCN3CCC[C@H]3C)cc2)cc1)C(=O)O` [Compound 18, (S)-2-(3-(4′-(2-((R)-2-methylpyrrolidin-1-yl)ethyl)biphenyl-4-yl)propanamido)propanoic acid], the IC50 came to 0.79 nM.

As to `C[C@@H]1CCCN1CCc1ccc(-c2ccc(CCC(=O)NCC(=O)OC(C)(C)C)cc2)cc1` [Compound 26, (R)-tert-Butyl 2-(3-(4′-(2-(2-Methylpyrrolidin-1-yl)ethyl)biphenyl-4-yl)propanamido)acetate], the IC50 came out at 3.8 nM.

Take `C[C@@H]1CCCN1CCc1ccc(-c2ccc(CC(=O)O)cc2)cc1` [Compound 2, (R)-2-(4′-(2-(2-Methylpyrrolidin-1-yl)ethyl)biphenyl-4-yl)acetic Acid]: the IC50 came out at 8.1 nM.
